Test results published in US8735414B2 (priority 2009, dated 2014).

How the values were obtained:
[1] = tested on: bicistronic HCV replicon (replicon RNA, GenBank Accession No. AJ242654); assay: HCV Replicon Assay; type: cell-based; conditions: Hepatitis C virus, 72 h, read-out: Replicon IC50

| SMILES | IC50 [1] | melting point |
| --- | --- | --- |
| CC(C)n1c(-c2ncc(S(=O)(=O)N[C@@H](C)C3CC3)cn2)c(C#N)c2ccc(OC(F)F)cc21 [compound 207, 2-[3-cyano-6-(difluoromethoxy)-1-(propan-2-yl)-1H-indol-2-yl]-N-[(1S)-1-cyclopropylethyl]pyrimidine-5-sulfonamide] | 500 to 2000 nM | 169 to 170 °C |
| Cc1cc2c(cc1F)c(C#N)c(-c1ccc(S(=O)(=O)NC(C)(C)C)cn1)n2-c1ccccc1 [compound 1108, N-tert-butyl-6-(3-cyano-5-fluoro-6-methyl-1-phenyl-1H-indol-2-yl)pyridine-3-sulfonamide] | < 500 nM | 200.6 to 202.4 °C |
| N#Cc1c(-c2ncc(S(=O)(=O)NC(CF)CF)cn2)n(C2CCCC2)c2ccc(F)cc12 [compound 240, 2-(3-cyano-1-cyclopentyl-5-fluoro-1H-indol-2-yl)-N-(1,3-difluoropropan-2-yl)pyrimidine-5-sulfonamide] | < 500 nM | 201 to 206 °C |
| N#Cc1c(-c2ncc(S(=O)(=O)NC(CF)CF)cn2)n(C2CCC2)c2cc(C3CC3)ccc12 [compound 126, 2-(3-cyano-1-cyclobutyl-6-cyclopropyl-1H-indol-2-yl)-N-(1,3-difluoropropan-2-yl)pyrimidine-5-sulfonamide] | < 500 nM | 165 to 168 °C |
| N#Cc1c(-c2ccc(S(=O)(=O)NC(CF)CF)cn2)n(C2CCCC2)c2cc(OC(F)(F)F)ccc12 [compound 70, 6-[3-cyano-1-cyclopentyl-6-(trifluoromethoxy)-1H-indol-2-yl]-N-(1,3-difluoropropan-2-yl)pyridine-3-sulfonamide] | < 500 nM | 141 to 143 °C |
| C[C@H](NS(=O)(=O)c1cnc(-c2c(C#N)c3ccc(CC(F)F)cc3n2CC2CC2)nc1)C1CC1 [compound 619, 2-[3-cyano-1-(cyclopropylmethyl)-6-(2,2-difluoroethyl)-1H-indol-2-yl]-N-[(1S)-1-cyclopropylethyl]pyrimidine-5-sulfonamide] | < 500 nM | 144 to 150 °C |
| COc1ccc2c(c1)c(C#N)c(-c1ccc(S(=O)(=O)NC(CF)CF)cn1)n2C1CCCC1 [compound 571, 6-(3-cyano-1-cyclopentyl-5-methoxy-1H-indol-2-yl)-N-(1,3-difluoropropan-2-yl)pyridine-3-sulfonamide] | < 500 nM | 167 to 169 °C |
| C[C@H](NS(=O)(=O)c1ccc(-c2c(C#N)c3ccc(C(F)F)cc3n2C2CCC2)nc1)C(F)(F)F [compound 363, 6-[3-cyano-1-cyclobutyl-6-(difluoromethyl)-1H-indol-2-yl]-N-[(2S)-1,1,1-trifluoropropan-2-yl]pyridine-3-sulfonamide] | < 500 nM | 198 to 207 °C |
| C[C@H](NS(=O)(=O)c1ccc(-c2c(C#N)c3ccc(OC(F)(F)F)cc3n2CC2CC2)nc1)C1CC1 [compound 309, 6-[3-cyano-1-(cyclopropylmethyl)-6-(trifluoromethoxy)-1H-indol-2-yl]-N-[(1S)-1-cyclopropylethyl]pyridine-3-sulfonamide] | < 500 nM | 115 to 117 °C |
| Cc1cc2c(cc1Cl)c(C#N)c(-c1ccc(S(=O)(=O)NC(CF)CF)cn1)n2C1CCC1 [compound 444, 6-(5-chloro-3-cyano-1-cyclobutyl-6-methyl-1H-indol-2-yl)-N-(1,3-difluoropropan-2-yl)pyridine-3-sulfonamide] | < 500 nM | 189 to 193 °C |
| C[C@@H](NS(=O)(=O)c1ccc(-c2c(C#N)c3ccc(Cl)cc3n2C2CCC2)nc1)C(F)(F)F [compound 222, 6-(6-chloro-3-cyano-1-cyclobutyl-1H-indol-2-yl)-N-[(2R)-1,1,1-trifluoropropan-2-yl]pyridine-3-sulfonamide] | < 500 nM | 202 to 206 °C |
| Cc1cc(F)c2c(C#N)c(-c3ccc(S(=O)(=O)NC(C)(C)C(F)(F)F)cn3)n(C3CCCC3)c2c1 [compound 626, 6-(3-cyano-1-cyclopentyl-4-fluoro-6-methyl-1H-indol-2-yl)-N-(1,1,1-trifluoro-2-methylpropan-2-yl)pyridine-3-sulfonamide] | < 500 nM | 218 to 223 °C |
| CC(C)(NS(=O)(=O)c1ccc(-c2c(C#N)c3ccc(OC(F)F)cc3n2C2CCCC2)nc1)C(F)(F)F [compound 382, 6-[3-cyano-1-cyclopentyl-6-(difluoromethoxy)-1H-indol-2-yl]-N-(1,1,1-trifluoro-2-methylpropan-2-yl)pyridine-3-sulfonamide] | < 500 nM | 170 to 174 °C |
| Cc1cc2c(cc1F)c(C#N)c(-c1ccc(S(=O)(=O)N[C@@H](C)C(F)(F)F)cn1)n2-c1ccncc1 [compound 933, 6-[3-cyano-5-fluoro-6-methyl-1-(pyridin-4-yl)-1H-indol-2-yl]-N-[(2S)-1,1,1-trifluoropropan-2-yl]pyridine-3-sulfonamide] | < 500 nM | 250 to 255 °C |
| CC(C)(C)NS(=O)(=O)c1ccc(-c2c(C#N)c3cc(Cl)ccc3n2C2CCC2)nc1 [compound 15, N-tert-butyl-6-(5-chloro-3-cyano-1-cyclobutyl-1H-indol-2-yl)pyridine-3-sulfonamide] | 500 to 2000 nM | 195 to 197 °C |
| CCc1cc2c(cc1F)c(C(N)=O)c(-c1cnc(NS(=O)(=O)C(C)(C)C)nc1)n2C1CCCCC1 [compound 1036, 2-{2-[(tert-butylsulfonyl)amino]pyrimidin-5-yl}-1-cyclohexyl-6-ethyl-5-fluoro-1H-indole-3-carboxamide] | 2000 to 5000 nM | > 300 °C |
| N#Cc1c(-c2ccc(S(=O)(=O)NC3CC(F)(F)C3)cn2)n(C2CCC2)c2cc(Cl)ccc12 [compound 244, 6-(6-chloro-3-cyano-1-cyclobutyl-1H-indol-2-yl)-N-(3,3-difluorocyclobutyl)pyridine-3-sulfonamide] | 2000 to 5000 nM | 135 to 138 °C |
| C[C@@H](NS(=O)(=O)c1ccc(-c2c(C#N)c3cc(F)c(OC(F)F)cc3n2CC2CC2)nc1)C(F)(F)F [compound 789, 6-[3-cyano-1-(cyclopropylmethyl)-6-(difluoromethoxy)-5-fluoro-1H-indol-2-yl]-N-[(2R)-1,1,1-trifluoropropan-2-yl]pyridine-3-sulfonamide] | < 500 nM | 148 to 153 °C |
| C[C@H](NS(=O)(=O)c1cnc(-c2c(C#N)c3ccc(C4CC4)cc3n2C2CCCC2)nc1)C(F)(F)F [compound 401, 2-(3-cyano-1-cyclopentyl-6-cyclopropyl-1H-indol-2-yl)-N-[(2S)-1,1,1-trifluoropropan-2-yl]pyrimidine-5-sulfonamide] | < 500 nM | 238 to 239 °C |
| CCc1cc2c(cc1F)c(C#N)c(-c1ccc(S(=O)(=O)N[C@@H](C)C(F)(F)F)cn1)n2-c1cccnn1 [compound 975, 6-[3-cyano-6-ethyl-5-fluoro-1-(pyridazin-3-yl)-1H-indol-2-yl]-N-[(2S)-1,1,1-trifluoropropan-2-yl]pyridine-3-sulfonamide] | < 500 nM | 240 to 247 °C |
| C[C@H](NS(=O)(=O)c1ccc(-c2c(C(N)=O)c3cc(F)ccc3n2C2CCC2)nc1)C(F)(F)F [compound 997, 1-cyclobutyl-5-fluoro-2-(5-{[(2S)-1,1,1-trifluoropropan-2-yl]sulfamoyl}pyridin-2-yl)-1H-indole-3-carboxamide] | < 500 nM | 224 to 227 °C |
| Cc1cc2c(cc1F)c(C#N)c(-c1ccc(S(=O)(=O)N[C@@H](C)C(F)(F)F)cn1)n2-c1nc(C#N)co1 [compound 1074, 6-[3-cyano-1-(4-cyano-1,3-oxazol-2-yl)-5-fluoro-6-methyl-1H-indol-2-yl]-N-[(2S)-1,1,1-trifluoropropan-2-yl]pyridine-3-sulfonamide] | < 500 nM | 212.2 to 216.9 °C |
| Cc1ccc2c(C#N)c(-c3ccc(S(=O)(=O)NC4(C(F)(F)F)CC4)cn3)n(C3CCC3)c2c1 [compound 256, 6-(3-cyano-1-cyclobutyl-6-methyl-1H-indol-2-yl)-N-[1-(trifluoromethyl)cyclopropyl]pyridine-3-sulfonamide] | < 500 nM | 189 to 194 °C |
| C[C@H](NS(=O)(=O)c1ccc(-c2c(C#N)c3cc(F)c(OC(F)F)cc3n2CC2CC2)nc1)C(F)(F)F [compound 787, 6-[3-cyano-1-(cyclopropylmethyl)-6-(difluoromethoxy)-5-fluoro-1H-indol-2-yl]-N-[(2S)-1,1,1-trifluoropropan-2-yl]pyridine-3-sulfonamide] | < 500 nM | 149 to 153 °C |
| Cc1cc2c(cc1F)c(C#N)c(-c1ccc(S(=O)(=O)N[C@@H](C)C(F)(F)F)cn1)n2-c1cncs1 [compound 973, 6-[3-cyano-5-fluoro-6-methyl-1-(1,3-thiazol-5-yl)-1H-indol-2-yl]-N-[(2S)-1,1,1-trifluoropropan-2-yl]pyridine-3-sulfonamide] | < 500 nM | 234 to 238 °C |
| C[C@H](NS(=O)(=O)c1ccc(-c2c(C#N)c3ccc(OC(F)(F)F)cc3n2C2CCC2)nc1)C(F)(F)F [compound 370, 6-[3-cyano-1-cyclobutyl-6-(trifluoromethoxy)-1H-indol-2-yl]-N-[(2S)-1,1,1-trifluoropropan-2-yl]pyridine-3-sulfonamide] | < 500 nM | 165 to 175 °C |
| N#Cc1c(-c2ncc(S(=O)(=O)NC(CF)CF)cn2)n(C2CCC2)c2cc(Cl)c(F)cc12 [compound 149, 2-(6-chloro-3-cyano-1-cyclobutyl-5-fluoro-1H-indol-2-yl)-N-(1,3-difluoropropan-2-yl)pyrimidine-5-sulfonamide] | < 500 nM | > 245 °C (dec.) |
| C[C@H](NS(=O)(=O)c1cnc(-c2c(C(N)=O)c3ccc(OC(F)F)cc3n2C2CCCCC2)nc1)C(F)(F)F [compound 746, 1-cyclohexyl-6-(difluoromethoxy)-2-(5-{[(2S)-1,1,1-trifluoropropan-2-yl]sulfamoyl}pyrimidin-2-yl)-1H-indole-3-carboxamide] | < 500 nM | 217 to 219 °C |
